Measured values taken from the supplement of paper PMC12420376.

Columns and labels:
OVCAR8 = assay: drug sensitivity score (DSS2) on cancer cell count; higher = more sensitive; extreme values may be limits of the assay; details: 72 h
How it was run: (§1)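 Ovarian cancer cells grown alone or 1:1 with lung or skin fibroblasts in direct co-culture were treated for 72 h on 384-well plates carrying 528 approved and investigational compounds at 5 concentrations. Fixed cells were stained for CK8/18 with Hoechst and imaged to count cancer cells. A drug sensitivity score was then derived in Breeze from logistic curve fits.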

KURAMOCHI = assay: as above; details: 72 h
How it was run: as §1

[1] = co-cultured fibroblast: BJHTERT
[2] = co-cultured fibroblast: none (monoculture)

SMILES	drug sensitivity score (OVCAR8; [1]) [DSS]	drug sensitivity score (OVCAR8; co-cultured fibroblast: WI38) [DSS]	drug sensitivity score (OVCAR8; [2]) [DSS]	drug sensitivity score (KURAMOCHI; [1]) [DSS]	drug sensitivity score (KURAMOCHI; co-cultured fibroblast: WI38) [DSS]	drug sensitivity score (KURAMOCHI; [2]) [DSS]
CO[C@@H](C(=O)N1Cc2[nH]nc(NC(=O)c3ccc(N4CCN(C)CC4)cc3)c2C1)c1ccccc1 [Danusertib]	15	19.2	21	22.9	20.9	28.6
O=C(/C=C/c1cccnc1)NCCCCC1CCN(C(=O)c2ccccc2)CC1 [Daporinad]	22.5	22.2	27.1	16	12.6	20.4
CCN(CC)CCN(Cc1ccc(-c2ccc(C(F)(F)F)cc2)cc1)C(=O)Cn1c(SCc2ccc(F)cc2)nc(=O)c2c1CCC2 [Darapladib]	0	8.3	0.4	0	0	0
Cc1nc(Nc2ncc(C(=O)Nc3c(C)cccc3Cl)s2)cc(N2CCN(CCO)CC2)n1 [Dasatinib]	13.6	21.9	21.9	18.4	17	20.4
COc1cccc2c1C(=O)c1c(O)c3c(c(O)c1C2=O)C[C@@](O)(C(C)=O)C[C@@H]3O[C@H]1C[C@H](N)[C@H](O)[C@H](C)O1 [Daunorubicin]	14.7	15.9	15.1	11.9	14.6	13.9
CC[C@@](C)(Nc1ccnc(-c2c[nH]c3ncccc23)n1)C(=O)NCC(F)(F)F [Decernotinib]	0	0	0	0	3.3	0
Nc1ncn([C@H]2C[C@H](O)[C@@H](CO)O2)c(=O)n1 [Decitabine]	6.9	11.4	4.8	0	1.7	0.3
CC(=O)N(O)CCCCCNC(=O)CCC(=O)N(O)CCCCCNC(=O)CCC(=O)N(O)CCCCCN [Deferoxamine]	3.6	3.5	7.7	4.5	7.3	1.6
C[C@H]1O[C@@H](O[C@H]2[C@@H](O)C[C@H](O[C@H]3[C@@H](O)C[C@H](O[C@H]4CC[C@@]5(C)[C@H](CC[C@@H]6[C@@H]5C[C@@H](O)[C@]5(C)[C@@H](C7=CC(=O)OC7)CC[C@]65O)C4)O[C@@H]3C)O[C@@H]2C)C[C@H](O)[C@@H]1O [Digoxin]	14.9	11.6	12.7	8.6	10.9	14.2
CCc1cnn2c(NCc3ccc[n+]([O-])c3)cc(N3CCCC[C@H]3CCO)nc12 [Dinaciclib]	26.4	17.1	23.1	17.2	23.9	23
CC(=O)O[C@@]12CO[C@@H]1C[C@H](O)[C@@]1(C)C(=O)[C@H](O)C3=C(C)[C@@H](OC(=O)[C@H](O)[C@@H](NC(=O)OC(C)(C)C)c4ccccc4)C[C@@](O)([C@@H](OC(=O)c4ccccc4)[C@H]21)C3(C)C [Docetaxel]	31.8	31.9	28.3	27.4	26.2	21.1
Cc1ccc(-n2nc(C(C)(C)C)cc2NC(=O)Nc2ccc(OCCN3CCOCC3)c3ccccc23)cc1 [Doramapimod]	4.4	0.1	1.4	4.2	3.4	2.8
CN1CCN(c2ccc3nc(-c4c(N)c5c(F)cccc5[nH]c4=O)[nH]c3c2)CC1 [Dovitinib]	0.5	0	0.3	0	0	0
COc1cccc2c1C(=O)c1c(O)c3c(c(O)c1C2=O)C[C@@](O)(C(=O)CO)C[C@@H]3O[C@H]1C[C@H](N)[C@H](O)[C@H](C)O1 [Doxorubicin]	12.5	12.3	12.1	10.7	12.7	25.1
C[C@H](Nc1ncnc2nc[nH]c12)c1cc2cccc(Cl)c2c(=O)n1-c1ccccc1 [Duvelisib]	0.4	0	0	4.6	0.5	0.3
Cc1ccc(NS(=O)(=O)c2cccc(C#N)c2)c2[nH]cc(C#N)c12 [E7820]	5.4	0	12.8	6.5	9.7	15.8
Cc1cc(Nc2cc(N3CCN(C)CC3)nc(/C=C/c3ccccc3)n2)n[nH]1 [ENMD-2076]	13.1	8.6	10.6	11.1	8.4	3.7
Cc1cc(C)c(CNC(=O)c2cc(-c3ccc(CN4CCOCC4)cc3)cc3c2cnn3C2CCCC2)c(=O)[nH]1 [EPZ-5687]	0	0	2.7	0	0	0
NC(=O)/C(=C/n1cnc(-c2cc(C(F)(F)F)cc(C(F)(F)F)c2)n1)c1cncnc1 [Eltanexor]	26.7	24.4	26.8	20	20.8	26.5
CC(C)(O)CNc1nc(Nc2ccnc(C(F)(F)F)c2)nc(-c2cccc(C(F)(F)F)n2)n1 [Enasidenib]	0	0	0	0.3	0	0
COC(=O)N[C@@H](C)CNc1nccc(-c2cn(C(C)C)nc2-c2cc(Cl)cc(NS(C)(=O)=O)c2F)n1 [Encorafenib]	0	0	0.1	0	0	0
C[C@@H]1CN(C(=O)c2ccc(NC(=O)c3cc(O[C@H](C)c4c(Cl)ccc(F)c4Cl)c(N)nn3)cc2)C[C@H](C)N1 [Ensartinib]	0	0.1	0	1	1	0
Nc1ccccc1NC(=O)c1ccc(CNC(=O)OCc2cccnc2)cc1 [Entinostat]	8.5	11.7	11.1	6	14.3	9.2
c1cn2cc(-c3ccc4cn[nH]c4c3)nc(Nc3ccc(N4CCOCC4)cc3)c2n1 [Entospletinib]	1.2	0	0	0	1.4	0
